Calls of active or inactive are those of the source. The rule behind the calls is not given here.
How the values were obtained:
ARP-1 = assay: Anti-proliferative activity against human ARP-1 cells assessed as inhibition cell growth at 5 uM incubated for 72 hrs by CCK-8 assay; format: functional, cell-based
[1] = Toxicity in BALB/c mouse xenografted with human NCI-H929 cells assessed as effect on body weight at 50 mg/kg, sc administrated every other day for 13 days; format: organism-based; settings: in vivo, 312 h, time 13 day
[2] = Toxicity in BALB/c mouse assessed as histological change in heart at 50 mg/kg, sc administrated every other day for 13 days by H and E staining based light microscopic analysis; format: organism-based; settings: in vivo, 312 h, time 13 day
[3] = Toxicity in BALB/c mouse assessed as histological change in kidney at 50 mg/kg, sc administrated every other day for 13 days by H and E staining based light microscopic analysis; format: organism-based; settings: in vivo, 312 h, time 13 day
[4] = Toxicity in BALB/c mouse assessed as histological change in liver at 50 mg/kg, sc administrated every other day for 13 days by H and E staining based light microscopic analysis; format: organism-based; settings: in vivo, 312 h, time 13 day
NCI-H929 [5] = assay: Antitumor activity against human NCI-H929 cells xenografted in BALB/C nude mouse model assessed as reduction in tumor growth at 50 mg/kg, sc administrated every other day for 13 days; format: functional, organism-based; settings: time 13.0 day
[6] = Anti-proliferative activity against human ARP-1cells assessed as cell growth inhibition incubated for 72 hrs by CCK-8 assay; settings: ARP-1, 72 h
[7] = Toxicity in BALB/c nude mouse xenografted with human NCI-H929 cells assessed as side effect at 50 mg/kg, sc administrated every other day for 13 days by H and E staining based light microscopic analysis; format: organism-based; settings: in vivo, 312 h, time 13 day
[8] = Toxicity in BALB/c nude mouse xenografted with human NCI-H929 cells assessed as drug tolerance at 50 mg/kg, sc administrated every other day for 13 days by H and E staining based light microscopic analysis; format: organism-based; settings: in vivo, 312 h, time 13 day
[9] = Toxicity in BALB/c mouse assessed as histological change in tumor at 50 mg/kg, sc administrated every other day for 13 days by H and E staining based light microscopic analysis; format: organism-based; settings: in vivo, 312 h, time 13 day
NCI-H929 [10] = assay: Anti-proliferative activity against human NCI-H929 cells assessed as inhibition cell growth at 5 uM incubated for 72 hrs by CCK-8 assay; format: functional, cell-based
NCI-H929 [11] = assay: Antitumor activity against human NCI-H929 cells xenografted in BALB/c nude mouse assessed as Ki-67 activity in tumor by microscopy based analysis; format: functional, cell-based
NCI-H929 [12] = assay: Anti-proliferative activity against human NCI-H929 cells assessed as cell growth inhibition incubated for 72 hrs by CCK-8 assay; settings: NCI-H929, 72 h
NCI-H929 [13] = assay: Induction of DNA damage in human NCI-H929 cells assessed as increase gamma-H2AX level at 10 to 20 uM incubated for 24 hrs by Western blot analysis; format: functional, cell-based; settings: dose 10-20 µM

## COc1ccc(SC2CC(=O)[C@H](NC(=O)c3ccc4c(c3)OCO4)O[C@@H]2COC(C)=O)cc1OC (some centres undefined)
ARP-1
  Activity: Active
[1]
  Activity: Non-Toxic
[2]
  Activity: Non-Toxic
[3]
  Activity: Non-Toxic
[4]
  Activity: Non-Toxic
NCI-H929 [5]
  Activity: Active
[6]
  IC50: 2.07 µM
[7]
  Activity: Non-Toxic
[8]
  Activity: Non-Toxic
[9]
  Activity: Non-Toxic
NCI-H929 [10]
  Activity: Active
NCI-H929 [11]
  Activity: Active
NCI-H929 [12]
  IC50: 1.24 µM
NCI-H929 [13]
  Activity: Active

From ChEMBL document CHEMBL5614386, “Design, synthesis, and biological evaluation of novel 1-amido-2-one-4-thio-deoxypyranose as potential antitumor agents for multiple myeloma” (Bioorg Med Chem, 2024)
